{"source": "patent US20180177766A1", "about": "“THERAPEUTIC AGENT FOR NEUROTROPHIC KERATOPATHY” (SENJU PHARMACEUTICAL CO., LTD., priority 2015, published 2018)", "key": {"[1]": {"system": "corneal epithelial disorder in GK rats", "experiment": "Corneal epithelial disorder in spontaneously diabetic Goto-Kakizaki (GK) rat, fluorescein staining score", "assay_type": "in vivo", "procedure": "Male GK rats (20 rats) (Wakuta M., et al., Invest. Ophthalmol. Vis. Sci. 2007 48 590-596) purchased from CLEA Japan, Inc. were used. Corneal epithelial disorders associated with neuropathy were found in GK rats (Wang F., et al., Am J Pathol. 2012 181 2058-2066). GK rats are originated from Wistar rats and therefore, Wistar rats were used as normal control group (7 rats). The animals were bred in a breeding room set to room temperature 23° C.±3° C., humidity 55%±10% RH, 12 hr lighting (08:00 lighting, 20:00 lights-out) from the arrival to the test end date. The animals were allowed to freely ingest a solid feed (Labo MR Stock, Nosan Corporation) and freely ingest tap water, passed through a sterilizer for animal drink, from an automatic-water supply apparatus. The test was performed on an approval from the animal care and use committee based on the Act on Welfare and Management of Animals (Act No. 105 of Oct. 1, 1973, final revision: Act No. 38 of Jun. 12, 2013) and the like.\nAs a test substance, compound A was used. Compound A was dissolved in the vehicle (Table 2) to 0.005% and used as an ophthalmic solution. As a control group, a vehicle ophthalmic solution made solely of a vehicle (Table 2) and free of compound A was used.\nGK rats were assigned to three groups of compound A ophthalmic solution administration group (4 rats) and non-administration group and vehicle ophthalmic solution administration group (8 for each group) using a statistical analysis software (SAS clinical package ver. 5.0, SAS Institute Japan), such that mean blood glucose concentration and mean corneal epithelial disorder score measured before instillation administration were uniform.\nCompound A ophthalmic solution or vehicle ophthalmic solution was administered by instillation for 14 days. Instillation administration was performed 4 times per day at 10 μL/administration to both eyes with a micropipette. The administration was not performed on the non-administration group and Wistar rats.\n0.1% Sodium fluoresceinate (Wako Pure Chemical Industries, Ltd.) (5 μL) was administered by instillation and fluorescein staining of the corneal epithelium was observed using a slit lamp, whereby the degree of corneal epithelial disorder was determined. To show the degree of abnormal findings in detail, one item was added to the diagnostic criteria of the McDonald-Shadduck method and used as the diagnostic criteria of the test (Table 3). The corneal epithelial disorder was scored for each of the three (upper, middle and lower) regions and the scores of the 3 regions were added up together. The corneal epithelial disorder was observed 2, 4, 6, 8, 11 and 15 days after the instillation administration."}, "[2]": {"system": "corneal sensitivity of rabbit cornea after corneal flap production", "experiment": "Decrease of corneal sensitivity after corneal flap production in rabbit (Cochet-Bonnet corneal esthesiometer)", "assay_type": "in vivo, Japanese white rabbit", "conditions": "0.005% ophthalmic solution, 50 μL instillation 4 times per day for 17 days, compared with vehicle ophthalmic solution, FIG. 2 and FIG. 3", "procedure": "Male Japanese white rabbits (body weight 2.80-3.32 kg) purchased from KITAYAMA LABES Co., Ltd. were used. The animals were bred in a breeding room set to room temperature 23° C.±3° C., humidity 55%±10% RH, 12 hr lighting (08:00 lighting, 20:00 lights-out) from the arrival to the test end date. A solid feed (Labo R Stock, Nosan Corporation, 100-120 g/day) was given to the animals, and the animals were allowed to freely ingest tap water, passed through a sterilizer for animal drink, from an automatic-water supply apparatus. The test was performed on an approval from the animal care and use committee based on the Act on Welfare and Management of Animals (Act No. 105 of Oct. 1, 1973, final revision: Act No. 38 of Jun. 12, 2013) and the like.\nAs a test substance, [3-[2-[4-isopropyl-2-(4-trifluoromethyl)phenyl-5-thiazolyl]ethyl]-5-methyl-1,2-benzisoxazol-6-yl]oxyacetic acid (hereinafter to be referred to as compound A) was used. […]\nBefore production of corneal flap, the anterior ocular segment of the rabbits was macroscopically observed, and the rabbits showing no abnormality were selected. Then, using Cochet-Bonnet corneal esthesiometer (manufactured by LUNEAU), the corneal sensitivity at measurement locations 1 and 2 in FIG. 1 was measured, and the rabbits showing a corneal sensitivity threshold of not less than 15 mm at both measurement locations 1 and 2 were selected. […]"}, "[3]": {"target": "T1, PPARδ (Homo sapiens, UniProt Q03181)", "T1 sequence (Q03181 1-441)": "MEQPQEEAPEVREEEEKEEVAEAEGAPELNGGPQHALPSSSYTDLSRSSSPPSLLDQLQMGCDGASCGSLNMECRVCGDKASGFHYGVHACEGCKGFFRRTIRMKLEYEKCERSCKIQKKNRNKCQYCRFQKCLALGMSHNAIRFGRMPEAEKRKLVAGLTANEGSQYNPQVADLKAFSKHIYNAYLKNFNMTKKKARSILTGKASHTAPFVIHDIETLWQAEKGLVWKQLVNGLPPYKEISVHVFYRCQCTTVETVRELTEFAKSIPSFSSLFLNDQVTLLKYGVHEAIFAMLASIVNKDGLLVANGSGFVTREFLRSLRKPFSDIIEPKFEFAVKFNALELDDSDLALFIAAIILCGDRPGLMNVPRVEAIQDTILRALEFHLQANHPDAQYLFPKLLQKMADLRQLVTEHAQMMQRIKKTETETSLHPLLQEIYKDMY", "conditions": "method described in Example 12 of WO 2003/033493; cited from earlier work"}}}
{"smiles": "Cc1cc2c(CCc3sc(-c4ccc(C(F)(F)F)cc4)nc3C(C)C)noc2cc1OCC(=O)O", "note": "[compound A, [3-[2-[4-isopropyl-2-(4-trifluoromethyl)phenyl-5-thiazolyl]ethyl]-5-methyl-1,2-benzisoxazol-6-yl]oxyacetic acid]", "values": [{"measurement": "corneal epithelial disorder, result in words", "setting": "[1]; 0.005% ophthalmic solution for 14 days, compared with non-administration and vehicle groups", "value": "improved"}, {"measurement": "corneal epithelial disorder score (sum of 3 regions)", "setting": "[1]; 8 days after administration, 0.005% ophthalmic solution, 10 μL 4 times per day, both eyes", "value": "4.06 ± 0.20"}, {"measurement": "corneal epithelial disorder score (sum of 3 regions)", "setting": "[1]; 11 days after administration, 0.005% ophthalmic solution, 10 μL 4 times per day, both eyes", "value": "4.00 ± 0.13"}, {"measurement": "corneal epithelial disorder score (sum of 3 regions)", "setting": "[1]; 15 days after administration, 0.005% ophthalmic solution, 10 μL 4 times per day, both eyes", "value": "4.00 ± 0.13"}, {"measurement": "corneal epithelial disorder score (sum of 3 regions)", "setting": "[1]; before administration (baseline), mean ± spread", "value": "4.63 ± 0.33"}, {"measurement": "recovery of corneal sensitivity at measurement locations 1 and 2 after corneal flap production", "setting": "[2]", "value": "recovered faster"}, {"measurement": "PPARδ agonist activity", "setting": "[3]", "value": "confirmed to have a PPARδ agonist activity"}]}
